Source: publication PMC8134483 (Scientific Reports, 2021)
Where two headings read alike, the source gives them in different places.

Columns and labels:
hCB1R [1] = target: T1, hCB1R (Homo sapiens, UniProt P21554); assay: biochemical; type: binding; conditions: for CB1R versus CB2R selectivity, receptor affinity: CB1R vs CB2R [^3H]CP55,940 binding
T1 construct: expressed in transfected cells; host or cells: CHO-K1

hCB2R [2] = target: T2, hCB2R (Homo sapiens, UniProt P34972); assay: PathHunter βarrestin2 recruitment, CB2R; type: cell-based; conditions: for βarrestin2 recruitment to CB2R, activity in words: relative to CP55,940
T2 construct: host or cells: CHO-K1 (PathHunter)

hCB1R [3] = target: T1, hCB1R; assay: cell-based; type: cell-based; conditions: for CB1R versus CB2R selectivity, βarrestin2 recruitment: CB1R vs CB2R; for EC50: CHO hCB1R, 90 min, value with 95% CI, read-out: CB1R βarrestin2 recruitment EC50; for Emax: read-out: CB1R βarrestin2 recruitment Emax; for βarrestin2 recruitment to CB1R, activity in words: relative to CP55940
hCB2R [4] = target: T2, hCB2R; assay: CB2R bias analysis (operational model, cAMP inhibition vs βarrestin2); type: cell-based; conditions: CP55,940 as reference agonist; >0 cAMP bias, <0 βarrestin2 bias
Protocol: (§1) Estimates of Ki, EC50, Emin, and Emax were determined using non-linear regression with variable slope (four parameters) (GraphPad, Prism, v. 8.0). […] One-way analysis of variance (ANOVA), followed by Tukey’s post-hoc test, was used for statistical analyses (p < 0.05 determined to be significant); and Bartlett’s test was used to confirm homogeneity of variance (GraphPad).

hCB2R [5] = target: T2, hCB2R; assay: [^3H]CP55,940 competition (radioligand displacement) binding to CB2R; conditions: for CB2R [^3H]CP55,940 Emin: bottom of the concentration–response curve, mean ± SEM
hCB1R [6] = target: T1, hCB1R; assay: CB1R bias analysis (operational model, cAMP inhibition vs βarrestin2); type: cell-based; conditions: for CB1R bias between cAMP inhibition and βarrestin2 recruitment, ∆∆LogR (cAMP—βarr2), in words: CP55,940 as reference agonist, >0 cAMP bias, <0 βarrestin2 bias
Protocol: as §1

hCB2R [7] = target: T2, hCB2R; assay: HitHunter inhibition of FSK-stimulated cAMP, CB2R; type: cell-based
hCB1R [8] = target: T1, hCB1R; assay: cell-based; type: cell-based; conditions: for EC50: CHO hCB1R, 10 µM FSK, 90 min, value with 95% CI, read-out: CB1R cAMP Inhibition EC50; for Emax: read-out: CB1R cAMP Inhibition Emax
male C57Bl/6 mice [9] = assay: Catalepsy, ring holding assay; type: in vivo; conditions: 0.1–10 mg/kg i.p.; 5 min; % MPE 60 s
Protocol: (§2) Adult male C57BL/6 mice aged 6–10 weeks (mean weight 24 ± 0.5 g) were purchased from Charles River Labs (Senneville, QC). Animals were group housed (three per cage) with ad libitum access to food, water, and environmental enrichment and maintained on a 12 h light/dark cycle. Mice were randomly assigned to receive i.p. injections of vehicle (1:1:18 ethanol:emulphor:saline) or 0.1–10 mg/kg SCRA (n ≥ 4 per group). All protocols have been described previously and were in accordance with the guidelines detailed by the Canadian Council on Animal Care and approved by the Animal Research Ethics Board and the Scientific Merit Review Committee for Animal Behaviour at the University of Saskatchewan. […]
(§3) Modified tetrad testing (catalepsy, body temperature, tail flick assay) was conducted according to previously described methods, which are summarized briefly here. […] Catalepsy was assessed in the ring holding assay 5 min following injection with mouse forepaws clasped to a 5 mm ring positioned 5 cm above the surface of the testing space. The length of time the ring was held was recorded (s) to a maximum time of 60 s (i.e. MPE = 60 s). Internal body temperature was measured 15 min after injection. Anti-nociception was determined by assessing tail flick latency 20 min after injection. […]

male C57Bl/6 mice [10] = assay: Internal body temperature; type: in vivo; conditions: 0.1–10 mg/kg i.p.; 15 min
Protocol: as §2, §3

male C57Bl/6 mice [11] = assay: Anti-nociception, tail flick assay; type: in vivo; conditions: 0.1–10 mg/kg i.p.; 20 min; 52 °C; % MPE 20 s
Protocol: as §2, §3

male C57Bl/6 mice [12] = assay: Elevated plus maze (EPM); type: in vivo; conditions: 1.0 mg/kg i.p., 30 min after treatment, 5 min trial; for EPM total arm entries: vs vehicle
Protocol: Adult male C57BL/6 mice aged 6–10 weeks (mean weight 24 ± 0.5 g) were purchased from Charles River Labs (Senneville, QC). Animals were group housed (three per cage) with ad libitum access to food, water, and environmental enrichment and maintained on a 12 h light/dark cycle. Mice were randomly assigned to receive i.p. injections of vehicle (1:1:18 ethanol:emulphor:saline) or 0.1–10 mg/kg SCRA (n ≥ 4 per group). All protocols have been described previously and were in accordance with the guidelines detailed by the Canadian Council on Animal Care and approved by the Animal Research Ethics Board and the Scientific Merit Review Committee for Animal Behaviour at the University of Saskatchewan. The following steps were taken to ensure our study was in keeping with the ARRIVE guidelines: (1) power analyses were conducted to determine the minimum number of animals required for the study; (2) animals were purchased—rather than bred—to limit animal waste; and (3) all assessments of animal behaviour were made by individuals blinded to the treatment group,[57].
EPM was conducted according to methods adapted from Marks et al.. The EPM was built from a plywood base painted blue with blue corrugated plastic floor and walls. The floor of the maze was composed of perpendicular interlocking arms (110 cm long × 10 cm wide) with two arms having 45 cm walls (closed arms) and two arms having no walls and a 0.5 cm edge (open arms), all elevated 45 cm from the ground. Trials began with the mouse in the central zone facing an open arm. Trials lasted 5 min and began 30 min after SCRA treatment. An arm entry was considered to be all four limbs leaving the central zone. Arm entries and the percent time spent in open versus closed arms were recorded by an observer blinded to the treatment group. Less time in the open arms and more time in the closed arms was used as a model of anxiogenic behaviour.

[13] = bottom of the concentration–response curve, mean ± SEM

T2 sequence (P34972 whole entry): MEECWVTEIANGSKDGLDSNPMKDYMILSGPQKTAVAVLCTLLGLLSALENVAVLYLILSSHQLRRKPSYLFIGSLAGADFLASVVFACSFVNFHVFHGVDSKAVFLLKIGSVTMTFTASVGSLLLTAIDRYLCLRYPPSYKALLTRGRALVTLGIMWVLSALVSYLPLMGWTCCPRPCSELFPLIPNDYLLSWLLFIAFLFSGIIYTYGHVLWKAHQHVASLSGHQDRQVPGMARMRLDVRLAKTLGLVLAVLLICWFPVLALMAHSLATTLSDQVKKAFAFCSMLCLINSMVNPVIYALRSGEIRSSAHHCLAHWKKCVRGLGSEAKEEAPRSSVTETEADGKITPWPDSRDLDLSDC
T1 sequence (P21554 whole entry): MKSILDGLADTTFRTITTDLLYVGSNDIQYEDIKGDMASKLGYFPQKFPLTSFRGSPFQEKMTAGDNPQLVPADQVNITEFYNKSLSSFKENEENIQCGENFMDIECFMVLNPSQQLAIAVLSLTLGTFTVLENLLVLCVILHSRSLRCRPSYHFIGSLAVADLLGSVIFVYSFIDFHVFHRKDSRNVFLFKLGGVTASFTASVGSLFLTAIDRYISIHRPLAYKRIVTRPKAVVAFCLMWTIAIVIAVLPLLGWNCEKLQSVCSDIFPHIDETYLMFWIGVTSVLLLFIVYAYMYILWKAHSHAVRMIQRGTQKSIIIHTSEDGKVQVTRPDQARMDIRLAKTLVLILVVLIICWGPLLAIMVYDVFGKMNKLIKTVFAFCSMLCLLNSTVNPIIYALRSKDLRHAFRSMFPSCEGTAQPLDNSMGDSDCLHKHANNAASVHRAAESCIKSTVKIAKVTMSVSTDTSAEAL

Compound	Ki (hCB1R [1]) [nM]	CB1R [^3H]CP55,940 Emin (hCB1R [1]; [13]) [%]	EC50 (hCB2R [2]) [nM]	Emax (hCB2R [2]) [%]	βarrestin2 recruitment to CB2R, activity in words (hCB2R [2])	CB1R versus CB2R selectivity, βarrestin2 recruitment (hCB1R [3])	EC50 (hCB1R [3]) [nM]	Emax (hCB1R [3]) [%]	βarrestin2 recruitment to CB1R, activity in words (hCB1R [3])	CB2R bias between cAMP inhibition and βarrestin2 recruitment, ∆∆LogR (cAMP—βarr2), in words (hCB2R [4])	Ki (hCB2R [5]) [nM]	CB2R [^3H]CP55,940 Emin (hCB2R [5]) [%]	CB1R bias between cAMP inhibition and βarrestin2 recruitment, ∆∆LogR (cAMP—βarr2), in words (hCB1R [6])	EC50 (hCB2R [7]) [nM]	Emax (hCB2R [7]) [%]	EC50 (hCB1R [8]) [nM]	Emax (hCB1R [8]) [%]	Affinity for CB2R compared with CP55,940, in words (hCB2R [5])	EPM total arm entries (male C57Bl/6 mice [12])	further results
CCC(Cl)CCn1nc(C(=O)NC(C(N)=O)C(C)C)c2ccccc21 (stereo not drawn) [3-chloro AB-PINACA]	170	65 ± 5.1	8.8	130 ± 4.5	greater potency and produced supramaximal EMax responses	more potent for CB2R-dependent recruitment of βarrestin2 than CB1R-dependent recruitment of βarrestin2	140	340 ± 11	greater potency and produced supramaximal EMax responses	significant bias toward the recruitment of βarrestin2	52	84 ± 4.3	did not display a bias	19	87 ± 15	0.04	94 ± 2.8			CB1R versus CB2R selectivity, cAMP inhibition potency (hCB1R [8]; CB1R vs CB2R): more potent at CB1R relative to CB2R
COC(=O)[C@@H](NC(=O)c1nn(CCCCF)c2ccccc12)C(C)(C)C [4-fluoro MDMB-BINACA]	99	52 ± 7.5	120	130 ± 8.2	greater potency and produced supramaximal EMax responses		88	240 ± 10	greater potency and produced supramaximal EMax responses	significant bias toward the recruitment of βarrestin2	0.41	57 ± 11	significant bias toward the recruitment of βarrestin2	0.56	95 ± 11	10	87 ± 5.6	significantly greater affinity	reduced total arm entries	CB1R versus CB2R selectivity, receptor affinity (hCB1R [1]): greater affinity at CB2R relative to CB1R; Catalepsy response (male C57Bl/6 mice [9]): full agonist; Body temperature (hypothermia) response (male C57Bl/6 mice [10]): full agonist; Anti-nociceptive response, tail flick (male C57Bl/6 mice [11]): full agonist; Observed CB1R bias in cell culture (hCB1R [6]; cAMP inhibition vs βarrestin2): βarrestin2; EPM time in the central quadrant (male C57Bl/6 mice [12]): majority of their time in the central quadrant immobile; EPM time in the open arms (male C57Bl/6 mice [12]): approximately the same amount of time in the open arm as vehicle-treated mice
O=C(Oc1cccc2cccnc12)c1nn(CCCCCF)c2ccccc12 [5-fluoro NPB-22]	47	2.3 ± 7.8	280	120 ± 3.7	not different with regard to potency relative to the reference agonist CP55,940, and produced supramaximal EMax responses		830	210 ± 12	equipotent, but produced supramaximal EMax responses	did not display a bias	4.3	34 ± 8.1	significant bias toward the recruitment of βarrestin2	3.2	110 ± 7.6	53	96 ± 7			
CCCC(F)Cn1nc(C(=O)NC(C(N)=O)C(C)C)c2ccccc21 (stereo not drawn) [AB-PINACA N-(2-fluoropentyl) isomer]	1.6	76 ± 6.2	9.4	140 ± 12	greater potency and produced supramaximal EMax responses	more potent for CB2R-dependent recruitment of βarrestin2 than CB1R-dependent recruitment of βarrestin2	240	204 ± 10	greater potency and produced supramaximal EMax responses	significant bias toward the recruitment of βarrestin2	270	2.8 ± 8.1	did not display a bias	10	91 ± 3.2	7.3	75 ± 7.5	significantly less affinity		Competition of 1.0 nM [^3H]CP55,940 from CB1R, in words (hCB1R [1]): only partially competing; CB1R versus CB2R selectivity, receptor affinity (hCB1R [1]): greater affinity at CB1R relative to CB2R; Competition of 1.0 nM [^3H]CP55,940 from CB2R, in words (hCB2R [5]): completely displaced; Competition of 1.0 nM [^3H]CP55,940 from CB2R, in words (hCB2R [5]; listed as AB PINACA N-(2-fluoropentyl) isomer): fully competed; CB1R-dependent inhibition of FSK-stimulated cAMP, activity in words (hCB1R [8]; relative to CP55940): partial agonist
CCCCCCC(C)(C)c1ccc([C@@H]2C[C@H](O)CC[C@H]2CCCO)c(O)c1 [CP55,940, reference compound]												0.0 ± 5.6							reduced total arm entries	CB1R [^3H]CP55,940 Emin (hCB1R [1]): 0.0 ± 5.2%; EPM time in the central quadrant (male C57Bl/6 mice [12]): majority of their time in the central quadrant immobile
CC(C)C(NC(=O)c1nn(Cc2ccccc2F)c2ccccc12)C(N)=O (stereo not drawn) [ortho-AB-FUBINACA]	2.7	16 ± 5.4	140	120 ± 3.1	not different with regard to potency relative to the reference agonist CP55,940, and produced supramaximal EMax responses	more potent for CB2R-dependent recruitment of βarrestin2 than CB1R-dependent recruitment of βarrestin2	810	280 ± 11	equipotent, but produced supramaximal EMax responses	significant bias toward the inhibition of cAMP	0.93	17 ± 1.2	significant bias toward the recruitment of βarrestin2	0.06	110 ± 6.7	3.6	83 ± 8.4	significantly greater affinity		Competition of 1.0 nM [^3H]CP55,940 from CB2R, in words (hCB2R [5]): completely displaced
CCCCCc1cc(O)c2c(c1)OC(C)(C)[C@@H]1CCC(C)=C[C@@H]21 [∆^9-THC, ∆^9-tetrahydrocannabinol, reference compound]				58 ± 1.1	significantly lower efficacy, but similar potency					did not display a bias		65 ± 7.6			48 ± 3.8				did not change total arm entries	CB2R-dependent inhibition of FSK-stimulated cAMP, activity in words (hCB2R [7]; relative to CP55,940): significantly lower efficacy; EPM open arm entries (male C57Bl/6 mice [12]): increased open arm entry; EPM time in the open arms (male C57Bl/6 mice [12]): greater amount of time spent in the open arms
